Several values for one entry are separate records, joined by “and”; a condition that tells them apart may be missing. Equal values may be shown once.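 In this assay, cells in 96-well plates receive the compound at five concentrations for 48 hours. Endpoints are linearly interpolated between the surrounding concentrations. Abbreviation: GI50, concentration required for 50% inhibition of growth. TGI: concentration producing complete growth inhibition.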
Columns and labels:
Experiment in all cases: NCI-60 cell line screen, 48 h
[1] = test system: SNB-19 CNS
[2] = test system: SK-OV-3 ovarian
[3] = test system: HCT-15 colon
[4] = test system: TK-10 renal
[5] = test system: T-47D breast
[6] = test system: SF-295 CNS
[7] = test system: HOP-62 NSCLC
[8] = test system: UACC-62 melanoma
[9] = test system: MALME-3M melanoma
[10] = test system: 786-0 renal

Structure (SMILES)	GI50 [1]	TGI [1]	GI50 [2]	TGI [2]	GI50 [3]	TGI [3]	GI50 [4]	TGI [4]	GI50 [5]	TGI [5]	GI50 [6]	TGI [6]	GI50 [7]	TGI [7]	GI50 [8]	TGI [8]	GI50 [9]	TGI [9]	GI50 [10]	TGI [10]
CC[C@H](C)n1cc(C)c2c(C(=O)NCc3c(C)cc(C)[nH]c3=O)cc(-c3ccc(N4CCNCC4)nc3)cc21	14.9 µM and 12.7 µM	30.4 µM and 26.8 µM	19.1 µM and 14.6 µM	33.5 µM and 28 µM	15.9 µM and 12.6 µM	30.7 µM and 26.5 µM	15.4 µM	29.7 µM	16.6 µM and 11.4 µM	36.3 µM and 28.4 µM	16.2 µM and 14.8 µM	31.9 µM and 29.3 µM	17.1 µM and 14.9 µM	33.1 µM and 29.8 µM	17.5 µM and 14.3 µM	33.2 µM and 28.5 µM	8 µM and 2.51 µM	21.5 µM and 6.78 µM	10.6 µM and 11.7 µM	24.4 µM and 25.2 µM
CC[CH2][Sn]([Cl])([Cl])[CH2]CC	13.2 µM	25.9 µM	25.7 µM	70.8 µM	11.3 µM	25.5 µM	3.16 µM	11.1 µM	1.17 µM	3.36 µM	17.2 µM	33.4 µM	16.6 µM	31.3 µM	4.19 µM	17.5 µM	1.55 µM	4.91 µM	10.8 µM	23 µM
CC1=C([Se]CC(OC(=O)[C@@H](CO)NC(=O)OC(C)(C)C)C(=O)NC(C)(C)C)C(=O)c2ccccc2C1=O (some centres undefined)	0.66 µM	2 µM	1.27 µM	2.55 µM	1.99 µM	3.97 µM	1.98 µM	3.44 µM	0.332 µM	1.06 µM	0.316 µM	1.06 µM	0.53 µM	1.86 µM	1.66 µM	3.05 µM	2.04 µM	3.77 µM	1.95 µM	3.39 µM
CC(=O)OC[C@]12CC[C@@H]([C@@H](C)C(N)=O)[C@@H]1[C@H]1CC[C@@H]3[C@@]4(C)CC[C@H](OC(C)=O)C(C)(C)[C@@H]4CC[C@@]3(C)[C@]1(C)CC2	11.9 µM	29.1 µM	13.4 µM	64 µM	4.04 µM	15.3 µM	14.7 µM	39.8 µM	2.91 µM	12.9 µM	8.57 µM	29.8 µM	11 µM	26.6 µM	5.46 µM	19.5 µM	10.5 µM	24.2 µM	10.9 µM	26.3 µM
C#COc1cccc(Nc2ncnc3ncc(NC(=O)CCl)cc23)c1	> 43.3 µM	> 62.5 µM	> 62.5 µM	> 62.5 µM	> 14 µM	> 62.5 µM	62 µM	> 62.5 µM	> 62.5 µM	> 62.5 µM	> 52.9 µM	> 62.5 µM	> 62.5 µM	> 62.5 µM	> 36.1 µM	> 62.5 µM	> 23.7 µM	> 38 µM	2.71 µM	> 62.5 µM
Clc1ccc(-c2nn3ncccc3c2-c2ccnc(Nc3ccccc3)n2)cc1	> 14.4 µM	> 25 µM	6.55 µM	> 25 µM	7.94 µM	> 25 µM	7.43 µM	> 20.4 µM	10.2 µM	> 25 µM	9.67 µM	> 25 µM	> 21.4 µM	> 25 µM	> 13 µM	> 25 µM	> 20.6 µM	> 25 µM	8.2 µM	> 25 µM
CCCN(CCC)CCCNC(=O)c1cc2c(-c3ccc(OC)c(OC)c3)nn(C)c2s1	34.2 µM	> 100 µM	44.3 µM	> 100 µM	25 µM	> 100 µM	40.9 µM	> 100 µM	27.5 µM	98.7 µM	21.6 µM	49.4 µM	37.2 µM	> 100 µM	16.9 µM	33 µM	18.4 µM	35.8 µM	17.9 µM	91 µM
O=C(CCCc1ccccn1)c1ccccc1		> 100 µM		> 100 µM		> 100 µM		> 100 µM		> 100 µM		> 100 µM		> 100 µM		> 100 µM		> 100 µM		> 100 µM
C#CCNC(=O)CC[C@]1(C)[C@H]2CC[C@@H]3[C@@H]([C@@](C)(O)CCC=C(C)C)CC[C@@]3(C)[C@]2(C)CC[C@H]1C(=C)C	56.1 µM	> 100 µM	> 100 µM	> 100 µM	20.8 µM	59.3 µM	43.7 µM	> 100 µM	35 µM	> 100 µM	48.4 µM	> 100 µM	35 µM	> 100 µM	22.5 µM	> 100 µM	16.4 µM	35 µM	12.2 µM	30 µM
C=C1C(=O)O[C@@H]2C[C@@H]1CC[C@@]1(C)O[C@@H]1CC[C@@]1(C)O[C@@H]1CC[C@@]2(C)O	17.6 µM	66 µM	30.6 µM	> 100 µM	24 µM	70.1 µM	23.4 µM	67.6 µM	2.09 µM	17 µM	19.6 µM	60.6 µM	32.9 µM	> 100 µM	14.6 µM	30.2 µM	16.2 µM	42.3 µM	19.2 µM	42.2 µM
O=C(O)CCCCn1cnc2c(=S)nc[nH]c21		> 100 µM		> 100 µM		> 100 µM		> 100 µM		> 100 µM		> 100 µM		> 100 µM		> 100 µM		> 100 µM		> 100 µM
CCOC(=O)c1c(C)n2c(=O)cc(C)c3c(OC(C)=O)c(OC(C)=O)cc1c32	5.71 µM	> 65 µM	11.8 µM	87.5 µM	3.37 µM	17.2 µM	15 µM	> 100 µM	4.08 µM	> 40.9 µM	5.2 µM	45.2 µM	7.05 µM	31.5 µM	4.22 µM	14.4 µM	9.93 µM	35.5 µM	3.75 µM	
COC(=O)[C@H](CC(C)C)NC(=O)NC(=O)NC(=O)CI	18 µM	37.1 µM	17.6 µM	31.8 µM	1.66 µM	3.13 µM	1.72 µM	3.62 µM	2.28 µM	7.03 µM	14.7 µM	28.7 µM	18.2 µM	34.2 µM	13.4 µM	28.2 µM	1.62 µM	3.43 µM	3.02 µM	11.5 µM
